For one data set, the system named is cuprizone model. To be noted: Slovic, 2012, Kim, 2011; cited from earlier work.
A short description of data set [1]: Penetration of intact and disrupted Blood Brain Barrier. It counts as in vivo, mice. To be noted: for Kp: mouse, CNS tissue relative to blood, read-out: CNS tissue level, % of the blood concentration. The text has this: In another study, laquinimod, as a small molecule, penetrated both intact and disrupted Blood Brain Barrier (BBB). In view of FIG. 17, CNS tissue level of laquinimod was 7-8% of the blood concentration in healthy mice and 13% in EAE mice when the BBB was disrupted. Further, 90% of the drug in cerebrospinal fluid (CSF) was active, or free, due to low protein binding and expected also in brain interstitial fluids. Thus, laquinimod targeted the entire brain and not only the lesions.

The next data set relates to human astrocytes. Briefly: Human astrocyte activation and cytokine secretion in vitro. Format: cell-based. The text has this: The effect of laquinimod on human astrocyte activation, as investigated in another study, is detailed in FIGS. 9 and 10. […] In unstimulated cells, the NF-κB dimers are sequestered in the cytoplasm by a family of inhibitors, called IκBs (Inhibitor of κB). […] Activation of the NF-κB is initiated by the signal-induced degradation of IκB proteins. This occurs primarily via activation of a kinase called the IκB kinase (IKK). When activated by signals, usually coming from the outside of the cell, the IκB kinase phosphorylates two serine residues located in an IκB regulatory domain. When phosphorylated, the IκB inhibitor molecules are modified by a process called ubiquitination, which than leads them to be degraded by a cell structure called the proteasome. With the degradation of IκB, the NF-κB complex is then freed to enter the nucleus where it can ‘turn on’ the expression of specific genes that have DNA-binding sites for NF-κB nearby. The activation of these genes by NF-κB then leads to the given physiological response, for example, an inflammatory or immune response.

Like-named read-outs stand apart in the source and are kept apart here.

Turning to `CCCCCCCCc1ccc(CCC(N)(CO)CO)cc1` [Fingolimod], the re-myelination result in the data set with cuprizone model is listed as “not conclusive”.

Consider `CCN(C(=O)c1c(O)c2c(Cl)cccc2n(C)c1=O)c1ccccc1` [Laquinimod], for which the “active, or free, drug in cerebrospinal fluid (CSF)” value in data set [1] (low protein binding) was 90%. Moreover, the Kp in data set [1] (EAE mice, BBB disrupted) is 0.13; in data set [1] (healthy mice) it was 0.07 to 0.08. Moreover, the pro-inflammatory cytokine secretion entry in the data set on human astrocytes (human astrocytes in vitro) is “down regulates”. Further, in the data set on human astrocytes (via the NF-κB pathway), the astrocyte activation entry was “interferes with astrocyte activation”.

The values are drawn from patent publication US20160074380A1, “Treatment Of Neurodegenerative Diseases With Combination Of Laquinimod And Fingolimod” (TEVA PHARMACEUTICAL INDUSTRIES LTD., priority 2014, published 2016).
